Patent US20060099712A1, “Correlation of anti-cancer activity of dyes with redox potentials” (Eastman Kodak Company, priority 2004, published 2006)

Tested on: CX-1 Human Colon Carcinoma
Assay: Clonogenic dye screening assay, CX-1 cells (IC50)
Assay type: cell-based
Conditions: for CX (IC50 in the CX-1 cell line): 3 hrs treatment, colonies after 7-10 days, unit from method b117-118; for CV/CX (selectivity, kill ratio): ratio of IC50 in normal CV-1 line to IC50 in carcinoma CX-1 line
Excerpt: CX-1 is a cancerous human colon adenocarcinoma cell line. CV-1 is a non-cancerous control, which is a kidney epithelial cell line from an African green monkey. IC50 is the dye concentration at which 50% of the cells are killed. Selectivity or kill ratio is defined as the ratio of […] at IC50 for both CX-1 and CV-1. A ratio with a high number indicates a high selectivity.
The dyes were screened in two cell lines. CX-1 is a human colon adenocarcinoma cell line. CV-1 is a kidney epithelial cell line from an African green monkey. CV-1 was used as a reference because no normal human epithelial cell line is available for clonogenic assay.
In the initial screen, dyes were examined at six different concentrations to generate a dose response curve. An IC50 value, the concentration at which 50% of the cells are killed, was then calculated. Initially, a dye concentration of 1.0 μg/mL was the highest examined for the CX-1 cell line and 0.005 μg/mL was the lower limit. The corresponding limits on the CV-1 cell line were […].
The screening procedure used a response curve that was determined from eight dye concentrations. The upper and lower limits of CX-1 were 0.32 and 0.0015 μg/mL, respectively, and the corresponding revised limits on CV-1 were 3.2 and 0.025 μg/mL. The screening results were reported by assigning an IC50 value to each dye for the CV-1 and CX-1 cell lines. These values will be referred to herein simply as CV and CX. The most desirable result would be to have a dye that was highly toxic to carcinoma cells but nontoxic to ‘normal’ cells. One measure of this type of selectivity is the ratio of the IC50's in the normal cell line to that in the carcinoma line, CV/CX.
Compounds are screened via an in vitro assay. CV-1 and CX-1 cells are seeded into separate assay plates. The plates are treated with varying concentrations of test compounds, rinsed, and colonies allowed to grow. IC50's are determined and drugs evaluated based on their selectivity and toxicity. Assay Steps: • I. Seeding Cells • II. Weighing • III. Preparation of Solution • IV. Treatment • V. Rinsing and Feeding • VI. Fixing • VII. IC50 Determination I. Seeding Cells
The cells should be seeded 16-30 hours before treatment. The media for CV-1 cells is DME+5% calf serum +5% Nuserum. The media for CX-1 cells is RPMI/DME (50/50)+5% calf serum +5% Nuserum.
(c) number of cells based on 2000 CX-1 cells/well and 1000 CV-1 cells/well. NOTE: Always make enough cell suspension for 1 extra plate to allow for volume loss during transfers.
• (a) For CV-1: 256 ug/ml-256 ul of 1 mg/ml stock +744 ul DMSO • (b) For CX-1: 25.6 ug/ml-100 ul of 256 ug/ml+900 ul DMSO IV. Treatment • 1. Each plate is treated with 4 test compounds, one positive control and one negative control. • 2. Serial dilutions of the compounds are made in the following way:
2 multi-well pipetters are used. One is set for 10 ul and one for 200 ul. Each is equipped with 6 tips spaced such that they fit into the 6 rows of a plate. 390 ul of media is added to the first column of each plate. 10 ul each of 4 compound solutions, a positive and a negative control are taken up and put into the first column of wells. The 200 ul pipetter is then placed in the same wells, pipetted up and down 3 times and two 200 ul aliquots are moved to the next column of wells. This column is pipetted up and down 3 times and 400 ul moved to column 3, etc. The final 400 ul excess from column 8 is discarded.
• 3. Label the plates along the front, each row −1 compound. • 4. Incubate the plates at 37° C. for 3 hrs. V. Rinsing • 1. Prepare several bottles of CX-1 and CV-1 media. • 2. Check for precipitate in first column of each plate and note. • 3. Starting with the plates treated first, rinse several plates at a time by aspirating the treatments and refilling each well with 0.5-1.0 ml of the rinse media. Aspirate and refill 2 more times for a total of 3 rinses. • 4.

[1] = listed as drawing 41|Et|5-Cl|5-Cl

Structure (SMILES)	CX (IC50 in the CX-1 cell line) [µg/mL]	CX (IC50 in the CX-1 cell line) [1] [µg/mL]	CV/CX (selectivity, kill ratio)	CV/CX (selectivity, kill ratio) [1]
CCSC(=Cc1sc2ccccc2[n+]1CC)C=C1Sc2ccccc2N1CC [drawing 38|E|H|Set|H]	0.04		15.0	
CN1/C(=C/C=C(\C=O)c2sc3ccccc3[n+]2C)Sc2ccccc21 [drawing 38|M|CHO|H|H]	>0.32		10.0	
CCC(=Cc1sc2ccccc2[n+]1C)C=C1Sc2ccccc2N1C [drawing 38|M|H|Et|H]			14.0	
CC(=Cc1sc2ccccc2[n+]1C)C=C1Sc2ccccc2N1C [drawing 38|M|H|Me|H]	0.02		5.0	
CSC(=Cc1sc2ccccc2[n+]1C)C=C1Sc2ccccc2N1C [drawing 38|M|H|SMe|H]	0.015		26.6	
CN1C(=CC(=Cc2sc3ccccc3[n+]2C)Sc2ccccc2)Sc2ccccc21 [drawing 38|M|H|SPh|H]	0.065		7.69	
CCN1C(=CC(=Cc2sc3ccccc3[n+]2CC)CSC(C)=O)Oc2ccccc21 [drawing 39|E|H|CSC(═O)C]	0.03		33.3	
CCC(=Cc1sc2ccccc2[n+]1CC)C=C1Oc2ccccc2N1CC [drawing 39|E|H|Et]	0.03		33.3	
CCN1C(=CC(C)=Cc2sc3ccccc3[n+]2CC)Oc2ccccc21 [drawing 39|E|H|Me]	0.05		20.0	
CCN1/C(=C/C=C(\OC(C)=O)c2sc3ccccc3[n+]2CC)Oc2ccccc21 [drawing 39|E|OAc|H]			10.0	
CCN1/C(=C/C=C(\O)c2sc3ccccc3[n+]2CC)Oc2ccccc21 [drawing 39|E|OH|H]			10.0	
CC[n+]1c(/C=C(/C=C2\Oc3ccccc3N2C)Sc2ccccc2)sc2ccccc21 [drawing 39|M/E|H|SPh]	0.1		3.0	
CC[n+]1c(/C(=C/C=C2\Oc3ccccc3N2C)Sc2ccccc2)sc2ccccc21 [drawing 39|M/E|SPh|H]			3.0	
CCN1/C(=C/C=C/c2sc3cc(O)c(O)cc3[n+]2CC)Sc2ccccc21 [drawing 41|Et|5,5-OH|H]			10.0	
CCN1C(=CC=Cc2sc3cc(OC)c(OC)cc3[n+]2CC)Sc2ccccc21 [drawing 41|Et|5,6-MeO|H]	0.02		20.0	
CCN1/C(=C/C=C/c2sc3c(N(C)C)cc(Cl)cc3[n+]2CC)Sc2ccccc21 [drawing 41|Et|5-Cl, 7-N(Me)2|H]	0.03		6.7	
CCN1/C(=C/C=C/c2sc3ccc(OC)cc3[n+]2CC)Sc2ccc(OC)cc21 [drawing 41|Et|5-MeO|5-MeO]			40.0	
CCN1C(=CC=Cc2sc3ccc(OC)cc3[n+]2CC)Sc2ccccc21 [drawing 41|Et|5-MeO|H]			40.0	
CCN1C(=CC=Cc2sc3cc(OC)ccc3[n+]2CC)Sc2cc(OC)ccc21 [drawing 41|Et|6-MeO|6-MeO]	0.01		9.0	
CCN1/C(=C/C=C/c2sc3c(OC)cccc3[n+]2CC)Sc2c(OC)cccc21 [drawing 41|Et|7-MeO|7-MeO]			5.0	
CN1/C(=C/C=C/c2sc3c(F)c(F)c(F)c(F)c3[n+]2C)Sc2c(F)c(F)c(F)c(F)c21 [drawing 41|Me|4,5,6,7-F|4,5,6,7-F]	>0.32		10.0	
CCN1/C(=C\C=C\c2[se]c3ccccc3[n+]2CC)Sc2cc(O)c(O)cc21 [drawing 42|H|5,6-OH]	0.300			
CC1CC2=C(c3ccccc31)N(C)/C(=C/C=C/c1sc3c([n+]1C)-c1ccccc1C(C)C3)S2 (stereo not drawn) [drawing 43|M|4,5-H, 5-ME|4,5-H, 5-ME]	0.08		1.25	

Further lines, with some results ahead:

CX (IC50 in the CX-1 cell line) [µg/mL]	CX (IC50 in the CX-1 cell line) [1] [µg/mL]	Structure (SMILES)	CV/CX (selectivity, kill ratio)	CV/CX (selectivity, kill ratio) [1]
0.07		CCN1/C(=C/C(=C/c2sc3ccccc3[n+]2CC)Sc2ccc(C)cc2)Sc2ccccc21 [drawing 38|E|H|SPhMe|H]	3.57	
0.06		CCC(/C=C1\Oc2ccc3ccccc3c2N1CC)=C\c1sc2ccc3ccccc3c2[n+]1CC [drawing 40|E|Et]	5.0	
0.3		CCN1/C(=C\C=C\c2sc3ccc4ccccc4c3[n+]2CC)Oc2ccc3ccccc3c21 [drawing 40|E|H]	6.7	
0.04		CCSC(=C\c1sc2ccc3ccccc3c2[n+]1CC)/C=C1\Oc2ccc3ccccc3c2N1CC [drawing 40|E|SEt]	1.25	
0.04		CCN1/C(=C/C(=C/c2sc3ccc4ccccc4c3[n+]2CC)SC)Oc2ccc3ccccc3c21 [drawing 40|E|SMe]	5.0	
0.08		CCC(/C=C1\Oc2ccc3ccccc3c2N1C)=C\c1sc2ccc3ccccc3c2[n+]1C [drawing 40|M|Et]	5.0	
0.03		CN1/C(=C/C(=C/c2sc3ccc4ccccc4c3[n+]2C)c2ccccc2)Oc2ccc3ccccc3c21 [drawing 40|M|Ph]	10.0	
0.04	0.30	CCN1C(=CC=Cc2sc3ccc(Cl)cc3[n+]2CC)Sc2ccc(Cl)cc21 [drawing 41|ET|5-Cl|5-Cl]	40.0	16.7
0.04		CCN1C(=CC=Cc2sc3ccc(Br)cc3[n+]2CC)Sc2ccc(Br)cc21 [drawing 41|Et|5-Br|5-Br]	35.0	
0.02		CCN1C(=CC=Cc2sc3ccc(Cl)cc3[n+]2CC)Sc2ccccc21 [drawing 41|Et|5-Cl|H]	40.0	
0.015		CCN1C(=CC=Cc2sc3ccc(OC)cc3[n+]2CC)Sc2ccc(C)cc21 [drawing 41|Et|5-MeO|5-Me]	13.3	
0.08		CCN1/C(=C/C=C/c2sc3ccc(-c4ccccc4)cc3[n+]2CC)Sc2ccc(-c3ccccc3)cc21 [drawing 41|Et|5-Ph|5-Ph,]	1.25	
0.16		CCN1/C(=C/C=C/c2sc3cc(C#N)ccc3[n+]2C)Sc2ccccc21 [drawing 41|M/E|6-CN|H]	20.0	
0.006		CCN1C2=C(CCc3ccccc32)S/C1=C\C=C\c1sc2c([n+]1CC)-c1ccccc1CC2 [drawing 43|E|4,5-H|4,5-H]	8.33	
0.3		CCN1/C(=C/C=C/c2sc3ccc4ccccc4c3[n+]2CC)Sc2ccc3ccccc3c21 [drawing 43|E|H|H]	6.7	
